Source: PMC5218480 (PLoS ONE, 2017)

Test system: MV-4-11 cells
Test: Gene expression microarray analysis (Affymetrix PrimeView) and GSEA
Format: cell-based, human
Parameters: RFU PODN (11730768_x_at) / Fold change /veh PODN (11730768_x_at) / RFU LINC00158 (11744669_a_at) / Fold change /veh LINC00158 (11744669_a_at) / RFU DUSP10 (11751237_a_at) / Fold change /veh DUSP10 (11751237_a_at) / RFU ID3 (11757404_x_at) / Fold change /veh ID3 (11757404_x_at) / RFU PLEKHG5 (11737974_s_at) / Fold change /veh PLEKHG5 (11737974_s_at) / RFU LRRC4B (11730491_at) / Fold change /veh LRRC4B (11730491_at) / RFU GIMAP4 (11747438_a_at) / Fold change /veh GIMAP4 (11747438_a_at) / RFU KRT8 (11758183_x_at) / Fold change /veh KRT8 (11758183_x_at) / RFU CNN1 (11734310_a_at) / Fold change /veh CNN1 (11734310_a_at) / RFU VPS37D (11726825_at) / Fold change /veh VPS37D (11726825_at) / RFU C10orf10 (11716522_x_at) / Fold change /veh C10orf10 (11716522_x_at) / RFU KIR2DL2 /// KIR2DL4 /// KIR2DL5A /// KIR2DL5B /// KIR2DS1 /// KIR2DS2 /// KIR2DS3 /// KIR2DS4 /// KIR3DL3 /// KIR3DL3 /// KIR3DS1 (11738374_at) / Fold change /veh KIR2DL2 /// KIR2DL4 /// KIR2DL5A /// KIR2DL5B /// KIR2DS1 /// KIR2DS2 /// KIR2DS3 /// KIR2DS4 /// KIR3DL3 /// KIR3DL3 /// KIR3DS1 (11738374_at) / RFU C1QL1 (11718748_at) / Fold change /veh C1QL1 (11718748_at) / RFU TMPRSS4 (11747572_a_at) / Fold change /veh TMPRSS4 (11747572_a_at) / RFU HAMP (11756126_x_at) / Fold change /veh HAMP (11756126_x_at) / RFU RNFT2 (11725882_a_at) / Fold change /veh RNFT2 (11725882_a_at) / RFU NR4A2 (11747474_a_at) / Fold change /veh NR4A2 (11747474_a_at) / RFU ABCC12 (11746883_a_at) / Fold change /veh ABCC12 (11746883_a_at) / RFU TMEM136 (11760407_x_at) / Fold change /veh TMEM136 (11760407_x_at) / RFU CLDN22 /// WWC2 (11732394_at) / Fold change /veh CLDN22 /// WWC2 (11732394_at) / RFU HLA-DPB1 (11760878_x_at) / Fold change /veh HLA-DPB1 (11760878_x_at) / RFU SPINT1 (11716480_a_at) / Fold change /veh SPINT1 (11716480_a_at) / RFU GAP43 (11754022_s_at) / Fold change /veh GAP43 (11754022_s_at) / RFU A4GNT (11735810_at) / Fold change /veh A4GNT (11735810_at) / RFU PRB3 (11715151_x_at) / Fold change /veh PRB3 (11715151_x_at) / RFU TUBB4B (11761932_at) / Fold change /veh TUBB4B (11761932_at) / RFU CAPN14 (11732068_a_at) / Fold change /veh CAPN14 (11732068_a_at) / RFU TMCC2 (11721928_a_at) / Fold change /veh TMCC2 (11721928_a_at) / RFU IRGQ (11745062_a_at) / Fold change /veh IRGQ (11745062_a_at) / RFU FAM174B (11720279_a_at) / Fold change /veh FAM174B (11720279_a_at) / RFU TMPRSS4 (11748680_a_at) / Fold change /veh TMPRSS4 (11748680_a_at) / RFU FAM212B (11763350_a_at) / Fold change /veh FAM212B (11763350_a_at) / RFU PLEKHG5 (11743358_a_at) / Fold change /veh PLEKHG5 (11743358_a_at) / RFU ZSCAN30 (11745921_a_at) / Fold change /veh ZSCAN30 (11745921_a_at) / RFU CMKLR1 (11741424_a_at) / Fold change /veh CMKLR1 (11741424_a_at) / RFU LOC101060620 /// MAPK8IP1 (11723275_at) / Fold change /veh LOC101060620 /// MAPK8IP1 (11723275_at) / RFU SPTSSB (11747773_x_at) / Fold change /veh SPTSSB (11747773_x_at) / RFU PRSS12 (11739890_at) / Fold change /veh PRSS12 (11739890_at) / RFU BIN1 (11741810_x_at) / Fold change /veh BIN1 (11741810_x_at) / RFU WNT11 (11732464_a_at) / Fold change /veh WNT11 (11732464_a_at) / RFU C10orf10 (11716521_a_at) / Fold change /veh C10orf10 (11716521_a_at) / RFU C5orf56 (11738089_at) / Fold change /veh C5orf56 (11738089_at) / RFU CYB561 (11721691_x_at) / Fold change /veh CYB561 (11721691_x_at) / RFU ANKRD19P (11752326_a_at) / Fold change /veh ANKRD19P (11752326_a_at) / RFU OR2T12 /// OR2T33 /// OR2T8 (11738714_s_at) / Fold change /veh OR2T12 /// OR2T33 /// OR2T8 (11738714_s_at) / RFU VCAN (11748164_a_at) / Fold change /veh VCAN (11748164_a_at) / RFU JSRP1 (11732532_at) / Fold change /veh JSRP1 (11732532_at) / RFU KRTAP10-11 (11738290_x_at) / Fold change /veh KRTAP10-11 (11738290_x_at) / RFU MYO3A (11730013_a_at) / Fold change /veh MYO3A (11730013_a_at) / RFU EBF3 (11725865_a_at) / Fold change /veh EBF3 (11725865_a_at) / RFU CAMK2N1 (11719241_x_at) / Fold change /veh CAMK2N1 (11719241_x_at) / RFU C5orf56 (11738088_a_at) / Fold change /veh C5orf56 (11738088_a_at) / RFU OLFML3 (11715873_a_at) / Fold change /veh OLFML3 (11715873_a_at) / RFU LOC100653217 /// NTM (11731650_a_at) / Fold change /veh LOC100653217 /// NTM (11731650_a_at) / RFU MAPK11 (11762145_a_at) / Fold change /veh MAPK11 (11762145_a_at) / RFU FIZ1 (11724087_x_at) / Fold change /veh FIZ1 (11724087_x_at) / RFU OASL (11726364_x_at) / Fold change /veh OASL (11726364_x_at) / RFU SOX15 (11748057_x_at) / Fold change /veh SOX15 (11748057_x_at) / RFU CD79A (11719716_a_at) / Fold change /veh CD79A (11719716_a_at) / RFU HIST1H1D (11736915_at) / Fold change /veh HIST1H1D (11736915_at) / RFU CASKIN2 (11723855_a_at) / Fold change /veh CASKIN2 (11723855_a_at) / RFU LOC730098 (11760151_x_at) / Fold change /veh LOC730098 (11760151_x_at) / RFU OR4N2 (11742367_at) / Fold change /veh OR4N2 (11742367_at) / RFU PRRT2 (11749266_a_at) / Fold change /veh PRRT2 (11749266_a_at) / RFU SNX32 (11753110_a_at) / Fold change /veh SNX32 (11753110_a_at) / RFU CDHR5 (11726645_a_at) / Fold change /veh CDHR5 (11726645_a_at) / RFU RCAN1 (11760418_a_at) / Fold change /veh RCAN1 (11760418_a_at) / RFU FAM167A (11723789_a_at) / Fold change /veh FAM167A (11723789_a_at) / RFU FAM26E (11764081_at) / Fold change /veh FAM26E (11764081_at) / RFU ISYNA1 (11749810_s_at) / Fold change /veh ISYNA1 (11749810_s_at) / RFU ACY1 (11761880_at) / Fold change /veh ACY1 (11761880_at) / RFU 11764098_at / Fold change /veh 11764098_at / RFU SAMD14 (11745864_x_at) / Fold change /veh SAMD14 (11745864_x_at) / RFU NPB (11741838_a_at) / Fold change /veh NPB (11741838_a_at) / RFU TMPRSS6 (11731388_a_at) / Fold change /veh TMPRSS6 (11731388_a_at) / RFU KRTAP10-2 (11738614_at) / Fold change /veh KRTAP10-2 (11738614_at) / RFU ARHGAP8 /// PRR5-ARHGAP8 (11727945_x_at) / Fold change /veh ARHGAP8 /// PRR5-ARHGAP8 (11727945_x_at) / RFU KRTAP5-7 /// NADSYN1 (11734609_at) / Fold change /veh KRTAP5-7 /// NADSYN1 (11734609_at) / RFU RASL12 (11751679_a_at) / Fold change /veh RASL12 (11751679_a_at) / RFU CDKN2B (11736163_a_at) / Fold change /veh CDKN2B (11736163_a_at) / RFU PRF1 (11729649_at) / Fold change /veh PRF1 (11729649_at) / RFU, ZNF638 /// ZNF638-IT1 / Fold change vs veh, ZNF638 /// ZNF638-IT1 / RFU, PANK3 / Fold change vs veh, PANK3 / RFU, SH3YL1 / Fold change vs veh, SH3YL1 / RFU, ZEB2 / Fold change vs veh, ZEB2 / RFU, NRIP1 / Fold change vs veh, NRIP1 / RFU, PTTG1IP / Fold change vs veh, PTTG1IP / RFU, CAPN2 / Fold change vs veh, CAPN2 / RFU, MED14 / Fold change vs veh, MED14 / RFU, SNORA58 / Fold change vs veh, SNORA58 / RFU, C1orf63 / Fold change vs veh, C1orf63 / RFU, LRRFIP1 / Fold change vs veh, LRRFIP1 / RFU, NDUFAF7 / Fold change vs veh, NDUFAF7 / RFU, SLC12A2 / Fold change vs veh, SLC12A2 / RFU, IBTK / Fold change vs veh, IBTK / RFU, ESF1 / Fold change vs veh, ESF1 / Fold change vs veh, TMEM50B / RFU, TAOK1 / Fold change vs veh, TAOK1 / RFU, ACBD3 / Fold change vs veh, ACBD3 / RFU, TMA16 / Fold change vs veh, TMA16 / RFU, RWDD3 / Fold change vs veh, RWDD3 / RFU, BCAT1 / Fold change vs veh, BCAT1 / RFU, EDEM3 / Fold change vs veh, EDEM3 / RFU, TMEM33 / Fold change vs veh, TMEM33 / RFU, WDR75 / Fold change vs veh, WDR75 / RFU, AHCTF1 / Fold change vs veh, AHCTF1 / RFU, TFRC / Fold change vs veh, TFRC / RFU, ZDHHC17 / Fold change vs veh, ZDHHC17 / RFU, NOM1 / Fold change vs veh, NOM1 / RFU, ARL8B / Fold change vs veh, ARL8B / RFU, ZBTB11 / Fold change vs veh, ZBTB11 / RFU, TAMM41 / Fold change vs veh, TAMM41 / RFU, KIAA1704 /// LOC100996395 / Fold change vs veh, KIAA1704 /// LOC100996395 / RFU, ING1 / Fold change vs veh, ING1 / RFU, TRMT61B / Fold change vs veh, TRMT61B / RFU, FUBP3 / Fold change vs veh, FUBP3 / RFU, TP53 / Fold change vs veh, TP53 / RFU, TNKS2 / Fold change vs veh, TNKS2 / RFU, ZFP14 / Fold change vs veh, ZFP14 / RFU, ACTR2 / Fold change vs veh, ACTR2 / RFU, PPP3R1 / Fold change vs veh, PPP3R1 / RFU, PIK3R1 / Fold change vs veh, PIK3R1 / RFU, HNRNPA1 / Fold change vs veh, HNRNPA1 / RFU, RNF170 / Fold change vs veh, RNF170 / RFU, ZNF28 / Fold change vs veh, ZNF28 / RFU, RNGTT / Fold change vs veh, RNGTT / RFU, OGT / Fold change vs veh, OGT / RFU, BRD1 / Fold change vs veh, BRD1 / RFU, MARS / Fold change vs veh, MARS / RFU, ZNF655 / Fold change vs veh, ZNF655 / RFU, FAHD1 / Fold change vs veh, FAHD1 / RFU, BDP1 / Fold change vs veh, BDP1 / RFU, LRRCC1 / Fold change vs veh, LRRCC1 / RFU, ARID1A / Fold change vs veh, ARID1A / RFU, ZNF146 / Fold change vs veh, ZNF146 / RFU, ZNF330 / Fold change vs veh, ZNF330 / RFU, GPN3 / Fold change vs veh, GPN3 / RFU, C9orf123 / Fold change vs veh, C9orf123 / RFU, N4BP2L2 / Fold change vs veh, N4BP2L2 / RFU, ARFIP1 / Fold change vs veh, ARFIP1 / RFU, FAM179B / Fold change vs veh, FAM179B / RFU, BCL10 / Fold change vs veh, BCL10 / RFU, UHRF1BP1L / Fold change vs veh, UHRF1BP1L / RFU, BET1 / Fold change vs veh, BET1 / RFU, CNOT2 / Fold change vs veh, CNOT2 / RFU, ZNF268 / Fold change vs veh, ZNF268 / Fold change vs veh, ZNF507 / RFU, DGCR2 / Fold change vs veh, DGCR2 / RFU, WDSUB1 / Fold change vs veh, WDSUB1 / Fold change vs veh, HSP90B1 /// MIR3652 / RFU, ADSS / Fold change vs veh, ADSS / RFU, GK / Fold change vs veh, GK / RFU, ZNF148 / Fold change vs veh, ZNF148 / RFU, TAF9 / Fold change vs veh, TAF9 / RFU, SLC1A5 / Fold change vs veh, SLC1A5 / RFU, SLMO2 / Fold change vs veh, SLMO2 / RFU, ABCC4 / Fold change vs veh, ABCC4 / RFU, LOC101060439 /// RAP1B / Fold change vs veh, LOC101060439 /// RAP1B / RFU, RFX7 / Fold change vs veh, RFX7 / RFU, GTPBP10 / Fold change vs veh, GTPBP10 / RFU, CNEP1R1 / Fold change vs veh, CNEP1R1 / RFU, BIVM-ERCC5 /// ERCC5 / Fold change vs veh, BIVM-ERCC5 /// ERCC5 / RFU, ILF3 / Fold change vs veh, ILF3 / RFU 11762660_at / Fold change /veh 11762660_at / RFU VCAN (11757783_s_at) / Fold change /veh VCAN (11757783_s_at) / RFU DDX43 (11728927_at) / Fold change /veh DDX43 (11728927_at) / RFU KRT8 (11758188_x_at) / Fold change /veh KRT8 (11758188_x_at) / RFU NKD1 (11759106_at) / Fold change /veh NKD1 (11759106_at) / RFU SRD5A1 (11742802_a_at) / Fold change /veh SRD5A1 (11742802_a_at) / RFU TPSAB1 /// TPSB2 (11721975_s_at) / Fold change /veh TPSAB1 /// TPSB2 (11721975_s_at) / RFU GSTM3 (11746129_a_at) / Fold change /veh GSTM3 (11746129_a_at) / RFU IL23R (11737362_x_at) / Fold change /veh IL23R (11737362_x_at) / RFU TMEM51 (11727254_a_at) / Fold change /veh TMEM51 (11727254_a_at) / RFU PIWIL2 (11732686_x_at) / Fold change /veh PIWIL2 (11732686_x_at) / RFU ORM1 (11744905_x_at) / Fold change /veh ORM1 (11744905_x_at) / RFU CCDC152 (11743942_at) / Fold change /veh CCDC152 (11743942_at) / RFU ECM1 (11717891_a_at) / Fold change /veh ECM1 (11717891_a_at) / RFU IL23R (11748794_a_at) / Fold change /veh IL23R (11748794_a_at) / RFU TNFAIP8L3 (11732012_x_at) / Fold change /veh TNFAIP8L3 (11732012_x_at) / RFU MBOAT4 (11741988_at) / Fold change /veh MBOAT4 (11741988_at) / RFU 11764193_at / Fold change /veh 11764193_at / RFU TMEM53 (11763286_at) / Fold change /veh TMEM53 (11763286_at) / RFU MAGEB2 (11727129_at) / Fold change /veh MAGEB2 (11727129_at) / RFU TMEM200A (11744735_a_at) / Fold change /veh TMEM200A (11744735_a_at) / RFU CCDC152 (11751479_a_at) / Fold change /veh CCDC152 (11751479_a_at) / RFU FAM211A (11726209_a_at) / Fold change /veh FAM211A (11726209_a_at) / RFU RGS16 (11746705_a_at) / Fold change /veh RGS16 (11746705_a_at) / RFU VCAN (11755009_s_at) / Fold change /veh VCAN (11755009_s_at) / RFU RHOB (11743442_s_at) / Fold change /veh RHOB (11743442_s_at) / RFU RGS16 (11720943_a_at) / Fold change /veh RGS16 (11720943_a_at) / RFU RGS16 (11720944_at) / Fold change /veh RGS16 (11720944_at) / RFU, VPS4B / Fold change vs veh, VPS4B / RFU, CREB1 / Fold change vs veh, CREB1 / RFU, DNAJC13 / Fold change vs veh, DNAJC13 / RFU, GNAQ / Fold change vs veh, GNAQ / RFU, CDK5R1 / Fold change vs veh, CDK5R1 / RFU, ZRANB3 / Fold change vs veh, ZRANB3 / RFU, CUL4A / Fold change vs veh, CUL4A / RFU, CCNY / Fold change vs veh, CCNY / RFU, UFL1 / Fold change vs veh, UFL1 / RFU, COG3 / Fold change vs veh, COG3 / RFU, DIAPH2 / Fold change vs veh, DIAPH2 / RFU, SKA2 / Fold change vs veh, SKA2 / RFU, AFF3 / Fold change vs veh, AFF3 / RFU, LMF1 / Fold change vs veh, LMF1 / RFU, IPO11 / Fold change vs veh, IPO11 / RFU, DFFB / Fold change vs veh, DFFB / RFU, FOXP1 / Fold change vs veh, FOXP1 / RFU, CARD8 / Fold change vs veh, CARD8 / RFU, STRN3 / Fold change vs veh, STRN3 / RFU, ADK / Fold change vs veh, ADK / RFU, RASSF2 / Fold change vs veh, RASSF2 / RFU, WIPF1 / Fold change vs veh, WIPF1 / RFU, LARP1B / Fold change vs veh, LARP1B / RFU, RASA1 / Fold change vs veh, RASA1 / RFU, RB1 / Fold change vs veh, RB1 / RFU, PPFIA1 / Fold change vs veh, PPFIA1 / RFU, MAT2A / Fold change vs veh, MAT2A / RFU, CCT5 / Fold change vs veh, CCT5 / RFU, WDR92 / Fold change vs veh, WDR92 / RFU, CUX1 / Fold change vs veh, CUX1 / RFU, TTC7A / Fold change vs veh, TTC7A / RFU, TMEM135 / Fold change vs veh, TMEM135 / RFU, DEPTOR / Fold change vs veh, DEPTOR / RFU, CPM / Fold change vs veh, CPM / RFU, DNAJB6 / Fold change vs veh, DNAJB6 / RFU, CACNA2D3 / Fold change vs veh, CACNA2D3 / RFU, DTX4 / Fold change vs veh, DTX4 / RFU, TFCP2 / Fold change vs veh, TFCP2 / RFU, GMCL1 /// GMCL1P1 / Fold change vs veh, GMCL1 /// GMCL1P1 / RFU, AEBP2 / Fold change vs veh, AEBP2 / RFU, SNHG1 /// SNORD22 /// SNORD25 /// SNORD26 /// SNORD27 /// SNORD28 /// SNORD29 /// SNORD31 / Fold change vs veh, SNHG1 /// SNORD22 /// SNORD25 /// SNORD26 /// SNORD27 /// SNORD28 /// SNORD29 /// SNORD31 / Fold change (Aza/veh), C12orf56 (ProbeSet 11735607_a_at) / Fold change (ACY-1035/veh), C12orf56 (ProbeSet 11735607_a_at) / Fold change (Aza/veh), FGFR1OP (ProbeSet 11751329_s_at) / Fold change (ACY-1035/veh), FGFR1OP (ProbeSet 11751329_s_at) / Fold change (Aza/veh), VPS36 (ProbeSet 11739960_a_at) / Fold change (ACY-1035/veh), VPS36 (ProbeSet 11739960_a_at) / RFU SYPL1 (11715823_x_at) / Fold change /veh SYPL1 (11715823_x_at) / RFU IGFBP7 (11715501_s_at) / Fold change /veh IGFBP7 (11715501_s_at) / RFU REEP3 (11722064_at) / Fold change /veh REEP3 (11722064_at) / RFU IGLL1 (11728026_x_at) / Fold change /veh IGLL1 (11728026_x_at): dose or concentration left out as unconfirmed
Settings: ProbeSet 11748670_a_at; LIST B

Compound: Nc1ccc(-c2cccs2)cc1NC(=O)c1ccc2c(c1)cc(C1CC1)n2CCN1CCOCC1 [ACY-1035]
- Fold change vs veh, PIK3R1: 0.90
